According to patent US9453005B2, “Inhibition of influenza M2 proton channel” (The Trustees Of The University Of Pennsylvania, priority 2008, dated 2016):

Target: AM2(V27A) (Influenza A virus, UniProt P0DOF5, V27A)
Assay type: biochemical

Question: Which “% Activity” value does the source give for `NC1CCC2(CCCCC2)CC1` [Compound 8, Spiro[5.5]undec-3-ylamine] here?
Answer: 8 (47.34%) 9 (68.39%)

Question: How did the “% Activity” value turn out when `CNC1CCC2(CCCCC2)CC1` [Compound 9, Methyl-spiro[5.5]undec-3-yl-amine] was run?
Answer: 8 (47.34%) 9 (68.39%)

Question: How did the “% Activity” value turn out when `Cl.NC12CC3CC(CC(C3)C1)C2` [amantadine, reference compound] was run?
Answer: 99.1%
